The text below walks through data of US20220395495A1 (priority 2019, published 2022).

SMILES strings stand for the structures.

Series [1] deals with TB. The experiment in a line: Direct in vitro activity on TB.
The test system of series [2] is Mtb within macrophages. The series is described as follows: Drug tolerance and killing of Mtb within macrophages. Format: cell-based. The note with it: by deacidification.
Series [3] can be described thus: Plasma concentrations and exposures of CQ by intraperitoneal or oral route. The note with it: in vivo.
Series [4] deals with Mtb H37Rv. The series is described as follows: Guinea pig infection model of tuberculosis, lung bacterial burden, Inh with or without CQ. Format: in vivo, Outbred Hartley guinea pigs. The note with it: Guinea pigs (FIG. 1F).
Series [5] has as its system Mtb H37Rv. The experiment in a line: Mouse chronic infection model of tuberculosis, lung bacterial CFU, Inh or Rif with or without CQ. Format: in vivo, BALB/c mice. Conditions: mice, 10 mg/kg chloroquine added to first line TB drug (FIGS. 1B, 1C).
The subject of series [6] is Mtb H37Rv. The experiment in a line: Dexamethasone-induced reactivation (relapse) of Mtb in the lungs of chronically infected BALB/c mice after treatment. Format: in vivo.

`CCN(CC)CCCC(C)Nc1ccnc2cc(Cl)ccc12` (stereo not shown) [Chloroquine]: the “Direct in vitro activity on TB” value in series [1] is “no or limited direct in vitro activity on TB”. For the same compound, the “Effect on phenotypic drug tolerance and killing of Mtb within macrophages” value in series [2] is “counteracts phenotypic drug tolerance and accelerates killing of Mtb within macrophages”. The “Plasma concentrations and exposures, intraperitoneal versus oral route” value in series [3] is “nearly equivalent plasma concentrations and exposures”. For the same compound, the “Bacterial killing and efficacy on addition of chloroquine to Isoniazid” value in series [4] is “enhanced bacterial killing and efficacy”. The “Bacterial killing and efficacy on addition of chloroquine to Isoniazid (H) or Rifampicin (R)” value in series [5] was “enhanced bacterial killing and efficacy”.

With `NNC(=O)c1ccncc1` [Inh alone, Isoniazid], the “Average log10CFU per lung” value in series [6] (reactivated Mtb in lungs after dexamethasone immunosuppression, 22nd week p.i., average over relapsed animals) is reported as 4.2 (n = 5) log10CFU per lung. In addition, the Percentage relapse in series [6] (treatment stopped at 12 weeks p.i., 8 weeks without treatment, then dexamethasone 10 mg/kg i.p. x4 over 2 weeks, lungs at 22nd week p.i., n=5) is 100% (5/5).
